Experimental data: patent US6916812B2, “Alpha-aminoamide derivatives as melanocortin agonists” (Bristol-Myers Squibb Company, priority 2001, dated 2005)
Read-outs that look alike come from different tables or passages of the source.

Target: T1, cloned human MC4R (Homo sapiens, UniProt P32245)
T1 construct: made in house; host or cells: Hi5 insect cells (baculovirus infection); membrane preparation
Test: Membrane binding assay: competitive inhibition of [125I]NDP-α-MSH binding
Conditions: for inhibition at 10 µM: read-out: Displacement Rate (%) (at 10 μM); for IC50: read-out: MC4R IC50
Procedure: Hi5 cells are infected using the following protocol: Cells at a density of 1×10^6 cells/mL are spun down at 1000 rpm (Beckman GS-6KR centrifuge) for 10 minutes. Cells are resuspended in 10% of their original volume in a sterile 50 mL conical centrifuge tube wrapped with aluminum foil. Virus is added at a Multiplicity of Infection (MOI) of 3 and incubated for 1 hour at room temperature with gentle shaking. […] Cells are spun down in 50 mL conical centrifuge tubes at 1000 rpm for 10 minutes. Each of the resulting pellets are resuspended in 10 mL of cold (4° C.) membrane buffer (25 mM HEPES, pH 7.4, 140 mM NaCl, 1.2 mM MgCl2, 2.5 mM CaCl2, 10 μG/mL Aprotinin, 10 μG/mL Leupeptin) and Dounce homogenized using 10-12 strokes. […] The resulting pellet is resuspended in cold membrane buffer in a total of ¼ of the original volume by vortexing and aspiration using a syringe and 27 gauge needle. Protein content is determined (Bradford, Bio-Rad Protein Assay). Membranes are aliquoted in microcentrifuge tubes and quick frozen in liquid nitrogen. Store at −80° C. until use. The membrane binding buffer is composed of 25 mM HEPES, pH 7.4, 140 mM NaCl, 1.2 mM MgCl2, 2.5 mM CaCl2, 0.1% BSA. […] The mixture is filtered with Brandel Microplate 96 filter apparatus using 96-well GF/B filter presoaked in 1-% polyethyleneimine (Sigma). The filter is washed (4 times with a total of 1 mL per well) with cold wash buffer consisting of 20 mM HEPES, pH 7.4, 5 mM MgCl2. […] 100 μl of Wallac Optiphase Supermix scintillation fluid is added to each well. The top is sealed and the plates are shaken to insure that the filters are thoroughly soaked with fluid. […] Dose-response curves are fitted by […] analyses and IC50 values are calculated using ExcelFit.

[1] = at 10 μM, [125I]NDP-α-MSH displacement

T1 sequence (P32245 whole entry): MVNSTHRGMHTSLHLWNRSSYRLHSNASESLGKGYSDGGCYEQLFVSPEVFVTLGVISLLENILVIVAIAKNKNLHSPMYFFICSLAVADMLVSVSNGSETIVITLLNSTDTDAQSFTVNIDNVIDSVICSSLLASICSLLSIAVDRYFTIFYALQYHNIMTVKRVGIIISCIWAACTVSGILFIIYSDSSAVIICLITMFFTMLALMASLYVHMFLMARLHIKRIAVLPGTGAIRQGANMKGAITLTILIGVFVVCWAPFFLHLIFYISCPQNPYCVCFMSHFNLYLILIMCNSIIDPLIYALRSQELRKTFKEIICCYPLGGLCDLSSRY

| Structure (SMILES) | inhibition at 10 µM [1] | IC50 | inhibition at 10 µM |
| --- | --- | --- | --- |
| COc1ccc2ccccc2c1CN1CCN(C(=O)[C@@H](N)Cc2ccc(OCc3ccccc3)cc2)CC1 [Example 106] | 71 to 90% | 1.5 to 3 µM |  |
| Cc1ccc(C)c(CN2CCN(C(=O)[C@@H](N)Cc3ccc(OCc4ccccc4)cc3)CC2)c1 [Example 107] | 71 to 90% | 1.5 to 3 µM |  |
| N[C@@H](Cc1ccc(OCc2ccccc2)cc1)C(=O)N1CCN(Cc2ccccc2-c2ccccc2)CC1 [Example 109] | 71 to 90% | > 3 µM |  |
| N[C@@H](Cc1ccc(OCc2ccccc2)cc1)C(=O)N1CCN(Cc2ccc(OCc3ccc([N+](=O)[O-])cc3)cc2)CC1 [Example 110] | 71 to 90% | < 1.5 µM |  |
| N[C@@H](Cc1ccc(OCc2ccccc2)cc1)C(=O)N1CCN(Cc2ccccc2[N+](=O)[O-])CC1 [Example 111] | 71 to 90% | > 3 µM |  |
| CC(C)(C)c1ccc(CN2CCN(C(=O)[C@@H](N)Cc3ccc(OCc4ccccc4)cc3)CC2)cc1 [Example 112] | 71 to 90% | 1.5 to 3 µM |  |
| N[C@@H](Cc1ccc(OCc2ccccc2)cc1)C(=O)N1CCN(Cc2ccc(Cl)c([N+](=O)[O-])c2)CC1 [Example 114] |  | > 3 µM | 71 to 90% |
| COc1cc(CN2CCN(C(=O)[C@@H](N)Cc3ccc(OCc4ccccc4)cc3)CC2)ccc1OCc1ccccc1 [Example 115] | 71 to 90% | > 3 µM |  |
| N[C@@H](Cc1ccc(OCc2ccccc2)cc1)C(=O)N1CCN(C2CCC(c3ccccc3)CC2)CC1 (stereo partly shown) [Example 118] | 71 to 90% | > 3 µM |  |
| N[C@@H](Cc1ccc(OCc2ccccc2)cc1)C(=O)N1CCN(Cc2ccc(Cl)cc2Cl)CC1 [Example 119] | 71 to 90% | > 3 µM |  |
| COc1cc(CN2CCN(C(=O)[C@@H](N)Cc3ccc(OCc4ccccc4)cc3)CC2)cc(Br)c1OC [Example 121] | 71 to 90% | 1.5 to 3 µM |  |
| CCCCCCCN1CCN(C(=O)[C@@H](N)Cc2ccc(OCc3ccccc3)cc2)CC1 [Example 122] | 71 to 90% | 1.5 to 3 µM |  |
| N[C@@H](Cc1ccc(OCc2ccccc2)cc1)C(=O)N1CCN(Cc2cc3c(cc2Cl)OCO3)CC1 [Example 124] |  | > 3 µM | 71 to 90% |
| CCCOc1ccc(CN2CCN(C(=O)[C@@H](N)Cc3ccc(OCc4ccccc4)cc3)CC2)cc1 [Example 126] | 71 to 90% | 1.5 to 3 µM |  |
| N[C@@H](Cc1ccc(OCc2ccccc2)cc1)C(=O)N1CCN(Cc2cccc3ccccc23)CC1 [Example 127] | 71 to 90% |  |  |
| N[C@@H](Cc1ccc(OCc2ccccc2)cc1)C(=O)N1CCN(Cc2ccc(Br)cc2)CC1 [Example 129] | 35 to 70% | > 3 µM |  |
| COc1cc(OC)c(CN2CCN(C(=O)[C@@H](N)Cc3ccc(OCc4ccccc4)cc3)CC2)cc1Br [Example 130] | 35 to 70% | > 3 µM |  |
| CCc1ccc(CN2CCN(C(=O)[C@@H](N)Cc3ccc(OCc4ccccc4)cc3)CC2)s1 [Example 131] | 35 to 70% | > 3 µM |  |

| Structure (SMILES) | inhibition at 10 µM [1] | IC50 | inhibition at 10 µM |
| --- | --- | --- | --- |
| COc1ccc(CCC(C)N2CCN(C(=O)[C@@H](N)Cc3ccc(OCc4ccccc4)cc3)CC2)cc1 (stereo partly shown) [Example 132] | 35 to 70% | > 3 µM |  |
| CCCCCCCCOc1ccc(CN2CCN(C(=O)[C@@H](N)Cc3ccc(OCc4ccccc4)cc3)CC2)cc1 [Example 133] | 35 to 70% | < 1.5 µM |  |
| N[C@@H](Cc1ccc(OCc2ccccc2)cc1)C(=O)N1CCN(Cc2cc([N+](=O)[O-])ccc2Cl)CC1 [Example 134] |  | 1.5 to 3 µM | 35 to 70% |
| CCc1ccc(CN2CCN(C(=O)[C@@H](N)Cc3ccc(OCc4ccccc4)cc3)CC2)cc1 [Example 135] | 35 to 70% | > 3 µM |  |
| CC(Cc1cccc(C(F)(F)F)c1)N1CCN(C(=O)[C@@H](N)Cc2ccc(OCc3ccccc3)cc2)CC1 (stereo partly shown) [Example 136] | 35 to 70% | > 3 µM |  |
| CN(C)c1ccc(CN2CCN(C(=O)[C@@H](N)Cc3ccc(OCc4ccccc4)cc3)CC2)c2ccccc12 [Example 137] | 35 to 70% | > 3 µM |  |
| N[C@@H](Cc1ccc(OCc2ccccc2)cc1)C(=O)N1CCN(C2CCN(CCc3ccccc3)CC2)CC1 [Example 139] | 35 to 70% | 1.5 to 3 µM |  |
| N[C@@H](Cc1ccc(OCc2ccccc2)cc1)C(=O)N1CCN(Cc2c(F)cccc2F)CC1 [Example 142] | 35 to 70% | > 3 µM |  |
| Cc1cccc(CN2CCN(C(=O)[C@@H](N)Cc3ccc(OCc4ccccc4)cc3)CC2)c1 [Example 144] | 35 to 70% | > 3 µM |  |
| N[C@@H](Cc1ccc(OCc2ccccc2)cc1)C(=O)N1CCN(CCCc2ccccc2)CC1 [Example 147] | 35 to 70% | > 3 µM |  |
| N[C@@H](Cc1ccc(OCc2ccccc2)cc1)C(=O)N1CCN(Cc2cc(O)ccc2[N+](=O)[O-])CC1 [Example 148] |  | > 3 µM | 35 to 70% |
| N[C@@H](Cc1ccc(OCc2ccccc2)cc1)C(=O)N1CCN(Cc2ccc([N+](=O)[O-])cc2)CC1 [Example 149] | 35 to 70% | > 3 µM |  |
| COc1cc(CN2CCN(C(=O)[C@@H](N)Cc3ccc(OCc4ccccc4)cc3)CC2)ccc1OCc1ccc([N+](=O)[O-])cc1 [Example 150] | 35 to 70% | 1.5 to 3 µM |  |
| N[C@@H](Cc1ccc(OCc2ccccc2)cc1)C(=O)N1CCN(Cc2cccc([N+](=O)[O-])c2)CC1 [Example 152] | 35 to 70% | > 3 µM |  |
| N[C@@H](Cc1ccc(OCc2ccccc2)cc1)C(=O)N1CCN(Cc2ccc(F)cc2F)CC1 [Example 153] | 35 to 70% | > 3 µM |  |
| N[C@@H](Cc1ccc(OCc2ccccc2)cc1)C(=O)N1CCN(Cc2cc3c(cc2[N+](=O)[O-])OCO3)CC1 [Example 154] | 35 to 70% | > 3 µM |  |
| N[C@@H](Cc1ccc(OCc2ccccc2)cc1)C(=O)N1CCN(C2CCN(Cc3ccccc3)CC2)CC1 [Example 155] | 35 to 70% | > 3 µM |  |
| N[C@@H](Cc1ccc(OCc2ccccc2)cc1)C(=O)N1CCN(Cc2ccc3c(c2)OCCO3)CC1 [Example 156] | 35 to 70% | > 3 µM |  |

Further lines, with some results ahead:

| inhibition at 10 µM [1] | IC50 | Structure (SMILES) | inhibition at 10 µM |
| --- | --- | --- | --- |
| 71 to 90% | < 1.5 µM | N[C@@H](Cc1ccc(OCc2ccccc2)cc1)C(=O)N1CCN(CC2CCCCC2)CC1 [Example 113] |  |
| 71 to 90% | 1.5 to 3 µM | CCOc1ccccc1CN1CCN(C(=O)[C@@H](N)Cc2ccc(OCc3ccccc3)cc2)CC1 [Example 116] |  |
| 71 to 90% | > 3 µM | CCOc1cccc(CN2CCN(C(=O)[C@@H](N)Cc3ccc(OCc4ccccc4)cc3)CC2)c1O [Example 117] |  |
| 71 to 90% | > 3 µM | N[C@@H](Cc1ccc(OCc2ccccc2)cc1)C(=O)N1CCN(Cc2cccc(F)c2F)CC1 [Example 120] |  |
| 71 to 90% | > 3 µM | N[C@@H](Cc1ccc(OCc2ccccc2)cc1)C(=O)N1CCN(Cc2cccc(C(F)(F)F)c2)CC1 [Example 123] |  |
| 71 to 90% | 1.5 to 3 µM | CSc1ccc(CN2CCN(C(=O)[C@@H](N)Cc3ccc(OCc4ccccc4)cc3)CC2)cc1 [Example 125] |  |
| 35 to 70% | > 3 µM | Cc1ccsc1CN1CCN(C(=O)[C@@H](N)Cc2ccc(OCc3ccccc3)cc2)CC1 [Example 128] |  |
| 35 to 70% | > 3 µM | N[C@@H](Cc1ccc(OCc2ccccc2)cc1)C(=O)N1CCN(Cc2ccc(C(F)(F)F)cc2)CC1 [Example 138] |  |
| 35 to 70% | > 3 µM | N[C@@H](Cc1ccc(OCc2ccccc2)cc1)C(=O)N1CCN(Cc2c(F)cccc2Cl)CC1 [Example 140] |  |
| 35 to 70% | > 3 µM | N[C@@H](Cc1ccc(OCc2ccccc2)cc1)C(=O)N1CCN(Cc2ccccc2)CC1 [Example 141] |  |
| 35 to 70% | > 3 µM | CC(C)N1CCN(C(=O)[C@@H](N)Cc2ccc(OCc3ccccc3)cc2)CC1 [Example 143] |  |
| 35 to 70% | > 3 µM | N[C@@H](Cc1ccc(OCc2ccccc2)cc1)C(=O)N1CCN(Cc2cc(F)ccc2F)CC1 [Example 145] |  |
| 35 to 70% | > 3 µM | CC(C)CN1CCN(C(=O)[C@@H](N)Cc2ccc(OCc3ccccc3)cc2)CC1 [Example 146] |  |
| 35 to 70% | > 3 µM | N[C@@H](Cc1ccc(OCc2ccccc2)cc1)C(=O)N1CCN(Cc2ccco2)CC1 [Example 151] |  |
| 35 to 70% | > 3 µM | CC(c1ccccc1)N1CCN(C(=O)[C@@H](N)Cc2ccc(OCc3ccccc3)cc2)CC1 (stereo partly shown) [Example 157] |  |
| 35 to 70% | > 3 µM | N[C@@H](Cc1ccc(OCc2ccccc2)cc1)C(=O)N1CCN(C2CCCC2)CC1 [Example 158] |  |
